Reference: ChEMBL document CHEMBL1201862, “PubChem BioAssay data set” (2004)
Activity calls are given as the source filed them.

Experiments:
[1] = target: Neuropeptides B/W receptor type 1 (Homo sapiens, UniProt P48145); test: Fluorescence-based dose response cell-based high throughput screening assay to identify antagonists of the G-protein coupled receptor 7 (GPR7). [Related pubchem assays: 1952 (Screening assay (GPR7 antagonists).), 1880 (Summary AID.)]; format: functional
[2] = target: Melanin-concentrating hormone receptor 1 (Homo sapiens, UniProt Q99705); test: Fluorescence-based counterscreen for antagonists of the G-protein coupled receptor 7 (GPR7): cell-based high throughput dose response assay to identify antagonists of the melanin-concentrating hormone receptor 1 (MCHR1).; format: functional
[3] = target: T1, Tyrosine-protein phosphatase non-receptor type 7 (Homo sapiens, UniProt P35236); test: Dose Response confirmation of compounds that inhibit HePTP. [Related pubchem assays (depositor defined):AID1059, AID1661, AID2085]; format: functional
T1 sequence (P35236 whole entry): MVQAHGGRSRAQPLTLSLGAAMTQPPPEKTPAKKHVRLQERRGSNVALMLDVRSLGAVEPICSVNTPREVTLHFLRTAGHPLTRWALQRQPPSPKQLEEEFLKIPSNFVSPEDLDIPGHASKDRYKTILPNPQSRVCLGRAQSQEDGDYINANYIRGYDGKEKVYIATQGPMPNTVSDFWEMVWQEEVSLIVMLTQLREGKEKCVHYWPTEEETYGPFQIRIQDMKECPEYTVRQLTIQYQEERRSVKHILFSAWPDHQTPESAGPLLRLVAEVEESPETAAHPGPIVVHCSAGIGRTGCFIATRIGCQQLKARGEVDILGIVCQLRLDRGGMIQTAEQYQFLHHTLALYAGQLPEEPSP

[4] = target: Dual specificity protein phosphatase 3 (Homo sapiens, UniProt P51452); test: Dose Response Confirmation of compounds that inhibit VHR1 in Fluorescent Assay. [Related pubchem assays (depositor defined):AID1661, AID1878]; format: functional
HeLa = test: HeLa cell cytotoxicity, dose response, cytotoxicity control, 24 h, cherry-picked samples (AID 504726); format: functional, cell-based; details: Homo sapiens;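 further: potency for cytotoxicity as loss of luminescence signal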
[5] = target: Eukaryotic translation initiation factor 4H (Homo sapiens, UniProt Q15056); test: eIF4H inhibition in translation initiation, SAR follow-up (AID 435011); format: functional
[6] = target: T2, Polyadenylate-binding protein 1 (Homo sapiens, UniProt P11940); test: PABP inhibition in translation initiation, SAR follow-up (AID 435018); format: functional
Aspartyl aminopeptidase = Aspartyl aminopeptidase (Plasmodium falciparum 3D7, UniProt Q8I2J3)
Procathepsin L = Procathepsin L (Homo sapiens, UniProt P07711)
[7] = target: T3, Mannose-6-phosphate isomerase (Homo sapiens, UniProt P34949); test: inhibitors of human PMI, primary screen, biochemical, fluorescence intensity, coupled assay (AID 1209)
T3 sequence (P34949 whole entry): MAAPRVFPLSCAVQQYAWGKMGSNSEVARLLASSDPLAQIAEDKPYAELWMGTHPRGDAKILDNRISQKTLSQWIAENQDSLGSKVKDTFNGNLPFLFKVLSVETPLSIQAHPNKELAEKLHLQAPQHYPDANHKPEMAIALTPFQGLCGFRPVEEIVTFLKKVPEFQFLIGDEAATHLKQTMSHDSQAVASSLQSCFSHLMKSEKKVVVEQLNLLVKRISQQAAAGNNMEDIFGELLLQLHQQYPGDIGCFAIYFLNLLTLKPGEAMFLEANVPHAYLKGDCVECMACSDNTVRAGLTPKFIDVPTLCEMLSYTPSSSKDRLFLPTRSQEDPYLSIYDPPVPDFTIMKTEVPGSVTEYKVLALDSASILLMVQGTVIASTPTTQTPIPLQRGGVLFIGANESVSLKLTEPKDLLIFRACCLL

[8] = target: T3, Mannose-6-phosphate isomerase; test: human PMI inhibitors, high substrate, primary screen, biochemical, fluorescence intensity, high mannose 6-phosphate (AID 1220)
[9] = target: DNA dC->dU-editing enzyme APOBEC-3A (Homo sapiens, UniProt P31941); test: APOBEC3A DNA deaminase inhibitors, dose response, biochemical (AID 504722); format: functional
[10] = target: DNA dC->dU-editing enzyme APOBEC-3G (Homo sapiens, UniProt Q9HC16); test: Dose Response confirmation of small molecule APOBEC3G DNA Deaminase Inhibitors via a fluorescence-based single-stranded DNA deaminase assay. [Related pubchem assays (depositor defined):AID493012, AID493028]; format: functional
Chaperone protein dnaK = Chaperone protein dnaK (Escherichia coli, UniProt C3TRK2); test: DnaK beta-domain binding affinity, SAR follow-up, orthogonal assay for DnaK modulator project, biophysical, isothermal titration calorimetry, full-length DnaK (AID 1495)
[11] = target: Lysosomal acid glucosylceramidase (Homo sapiens, UniProt P04062); test: Dose response cell-based high throughput screening assay to identify enhancers of beta-glucosidase activity. [Related pubchem assays: 784 ]; format: functional
Caspase-3 = target: T4, Caspase-3 (Homo sapiens, UniProt P42574); test: procaspase-3 activators, dose response, biochemical, absorbance (AID 489014)
T4 sequence (P42574 whole entry): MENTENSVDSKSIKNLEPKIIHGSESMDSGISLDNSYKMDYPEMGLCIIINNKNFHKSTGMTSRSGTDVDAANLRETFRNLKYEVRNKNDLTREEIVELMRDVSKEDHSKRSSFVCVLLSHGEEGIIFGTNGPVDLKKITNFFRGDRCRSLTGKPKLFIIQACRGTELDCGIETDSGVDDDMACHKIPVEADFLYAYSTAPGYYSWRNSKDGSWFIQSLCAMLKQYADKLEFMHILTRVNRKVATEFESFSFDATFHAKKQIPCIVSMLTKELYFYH

Caspase-7 = Caspase-7 (Homo sapiens, UniProt P55210); test: procaspase-7 activators, dose response, counter-screen for procaspase-3 activator project, biochemical, absorbance (AID 489013)
cells = format: functional
[12] = target: T2, Polyadenylate-binding protein 1; test: PABP1 MLLE–PAM2 interaction inhibitors, dose response, miRNA deadenylation inhibitor project, biochemical, fluorescence polarization, Cy5-PAM2 peptide, secondary (AID 602260); format: functional; details: read-out: IC50_Mean
[13] = target: T2, Polyadenylate-binding protein 1; test: PABP1 MLLE–PAM2 binding inhibitor potency, dose response, biochemical, fluorescence polarization, FITC-PAM2 peptide (AID 602259); format: functional; details: read-out: IC50_Mean

T2 sequence (P11940 whole entry): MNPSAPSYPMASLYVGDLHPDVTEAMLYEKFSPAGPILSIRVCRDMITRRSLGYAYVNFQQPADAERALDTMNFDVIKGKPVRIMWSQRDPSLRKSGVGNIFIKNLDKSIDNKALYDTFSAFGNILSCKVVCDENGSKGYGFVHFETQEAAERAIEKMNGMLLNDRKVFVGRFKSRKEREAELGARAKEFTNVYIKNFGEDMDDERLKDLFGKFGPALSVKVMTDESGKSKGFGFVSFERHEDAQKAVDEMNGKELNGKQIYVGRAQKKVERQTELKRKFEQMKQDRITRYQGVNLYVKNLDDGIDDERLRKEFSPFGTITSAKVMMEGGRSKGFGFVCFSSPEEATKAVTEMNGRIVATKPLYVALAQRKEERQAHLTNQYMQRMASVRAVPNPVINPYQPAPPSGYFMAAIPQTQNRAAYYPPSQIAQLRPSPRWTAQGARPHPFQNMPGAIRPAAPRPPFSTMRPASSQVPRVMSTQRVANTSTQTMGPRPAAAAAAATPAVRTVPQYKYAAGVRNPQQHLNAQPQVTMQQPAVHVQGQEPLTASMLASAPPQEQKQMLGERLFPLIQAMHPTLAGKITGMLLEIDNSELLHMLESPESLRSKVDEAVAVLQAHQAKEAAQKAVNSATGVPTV
Neuropeptides B/W receptor type 1, sequence (P48145 whole entry): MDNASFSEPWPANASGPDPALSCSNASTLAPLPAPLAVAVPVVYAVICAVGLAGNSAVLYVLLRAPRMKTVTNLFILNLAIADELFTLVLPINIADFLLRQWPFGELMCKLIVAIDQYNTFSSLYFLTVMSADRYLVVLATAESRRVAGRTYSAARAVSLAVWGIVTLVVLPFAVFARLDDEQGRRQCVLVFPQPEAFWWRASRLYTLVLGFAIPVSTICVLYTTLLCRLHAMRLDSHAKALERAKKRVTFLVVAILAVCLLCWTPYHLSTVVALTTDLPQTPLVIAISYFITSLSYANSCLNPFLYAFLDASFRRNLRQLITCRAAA
DNA dC->dU-editing enzyme APOBEC-3A, sequence (P31941 whole entry): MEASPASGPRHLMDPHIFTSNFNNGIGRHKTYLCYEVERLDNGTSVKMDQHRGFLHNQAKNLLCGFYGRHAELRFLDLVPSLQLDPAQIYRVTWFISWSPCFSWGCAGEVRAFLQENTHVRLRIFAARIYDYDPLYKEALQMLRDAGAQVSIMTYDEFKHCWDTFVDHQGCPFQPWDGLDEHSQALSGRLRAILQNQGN
Caspase-7, sequence (P55210 24-198 limits assumed): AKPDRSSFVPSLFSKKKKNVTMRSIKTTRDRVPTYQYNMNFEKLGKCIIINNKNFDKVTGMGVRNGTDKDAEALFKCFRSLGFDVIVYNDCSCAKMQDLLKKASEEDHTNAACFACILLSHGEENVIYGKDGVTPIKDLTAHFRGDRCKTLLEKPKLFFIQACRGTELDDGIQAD
Caspase-7, sequence (P55210 207-303 limits assumed): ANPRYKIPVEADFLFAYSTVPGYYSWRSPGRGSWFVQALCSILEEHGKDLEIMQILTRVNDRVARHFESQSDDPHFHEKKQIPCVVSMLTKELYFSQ
Chaperone protein dnaK, sequence (C3TRK2 whole entry): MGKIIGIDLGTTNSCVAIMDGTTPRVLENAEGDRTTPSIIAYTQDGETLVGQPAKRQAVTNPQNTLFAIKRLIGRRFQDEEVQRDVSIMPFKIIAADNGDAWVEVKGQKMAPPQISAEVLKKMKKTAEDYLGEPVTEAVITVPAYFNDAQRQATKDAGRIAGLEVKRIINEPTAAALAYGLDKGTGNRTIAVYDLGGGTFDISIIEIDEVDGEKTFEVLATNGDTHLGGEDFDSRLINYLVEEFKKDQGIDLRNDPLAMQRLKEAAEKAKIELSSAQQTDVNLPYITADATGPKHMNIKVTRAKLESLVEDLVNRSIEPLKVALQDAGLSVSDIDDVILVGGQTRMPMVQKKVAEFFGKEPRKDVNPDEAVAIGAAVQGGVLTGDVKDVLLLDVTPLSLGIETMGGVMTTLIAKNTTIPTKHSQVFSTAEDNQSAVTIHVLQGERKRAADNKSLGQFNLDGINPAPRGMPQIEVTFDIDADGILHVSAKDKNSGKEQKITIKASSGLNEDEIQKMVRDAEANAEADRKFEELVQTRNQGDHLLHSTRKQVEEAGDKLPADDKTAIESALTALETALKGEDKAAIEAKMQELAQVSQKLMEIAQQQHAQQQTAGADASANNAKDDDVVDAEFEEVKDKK
DNA dC->dU-editing enzyme APOBEC-3G, sequence (Q9HC16 whole entry): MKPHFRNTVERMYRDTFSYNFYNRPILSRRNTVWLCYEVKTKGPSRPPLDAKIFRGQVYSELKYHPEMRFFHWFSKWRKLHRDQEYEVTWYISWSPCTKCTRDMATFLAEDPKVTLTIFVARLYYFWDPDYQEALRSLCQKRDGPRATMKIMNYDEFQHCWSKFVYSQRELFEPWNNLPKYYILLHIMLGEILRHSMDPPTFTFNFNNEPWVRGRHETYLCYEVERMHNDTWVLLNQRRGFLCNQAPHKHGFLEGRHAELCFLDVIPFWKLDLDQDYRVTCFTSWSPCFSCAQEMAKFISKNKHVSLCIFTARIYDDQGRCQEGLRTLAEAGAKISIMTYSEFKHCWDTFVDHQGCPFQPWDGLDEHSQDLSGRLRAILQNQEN
Lysosomal acid glucosylceramidase, sequence (P04062 whole entry): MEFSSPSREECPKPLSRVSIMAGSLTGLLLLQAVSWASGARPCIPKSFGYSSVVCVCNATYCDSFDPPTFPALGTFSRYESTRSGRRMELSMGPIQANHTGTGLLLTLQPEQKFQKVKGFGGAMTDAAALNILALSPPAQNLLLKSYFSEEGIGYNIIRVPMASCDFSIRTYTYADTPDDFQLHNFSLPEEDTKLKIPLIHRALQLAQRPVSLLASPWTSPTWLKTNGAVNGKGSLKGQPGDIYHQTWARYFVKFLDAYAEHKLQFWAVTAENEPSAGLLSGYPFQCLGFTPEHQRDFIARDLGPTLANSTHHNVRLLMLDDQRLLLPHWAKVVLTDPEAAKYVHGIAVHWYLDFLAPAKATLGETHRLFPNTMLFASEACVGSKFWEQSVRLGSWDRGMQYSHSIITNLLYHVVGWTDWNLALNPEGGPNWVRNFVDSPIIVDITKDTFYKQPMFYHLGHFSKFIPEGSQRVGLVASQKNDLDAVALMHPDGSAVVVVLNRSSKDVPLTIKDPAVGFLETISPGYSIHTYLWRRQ
Dual specificity protein phosphatase 3, sequence (P51452 whole entry): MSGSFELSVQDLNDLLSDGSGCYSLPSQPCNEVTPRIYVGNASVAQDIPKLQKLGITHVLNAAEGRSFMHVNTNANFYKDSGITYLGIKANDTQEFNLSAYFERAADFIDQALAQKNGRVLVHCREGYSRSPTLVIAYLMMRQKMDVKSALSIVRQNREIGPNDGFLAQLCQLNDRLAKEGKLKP
Melanin-concentrating hormone receptor 1, sequence (Q99705 whole entry): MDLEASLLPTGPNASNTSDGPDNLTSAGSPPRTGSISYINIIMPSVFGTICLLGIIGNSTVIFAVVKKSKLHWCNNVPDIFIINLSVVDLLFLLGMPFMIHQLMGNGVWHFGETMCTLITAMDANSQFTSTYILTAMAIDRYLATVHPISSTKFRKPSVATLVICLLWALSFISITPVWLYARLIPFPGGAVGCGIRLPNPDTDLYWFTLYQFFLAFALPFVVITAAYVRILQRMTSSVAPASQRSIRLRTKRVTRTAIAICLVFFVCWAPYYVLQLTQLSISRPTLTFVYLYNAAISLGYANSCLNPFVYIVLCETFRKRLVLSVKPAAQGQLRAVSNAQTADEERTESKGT
Aspartyl aminopeptidase, sequence (Q8I2J3 whole entry): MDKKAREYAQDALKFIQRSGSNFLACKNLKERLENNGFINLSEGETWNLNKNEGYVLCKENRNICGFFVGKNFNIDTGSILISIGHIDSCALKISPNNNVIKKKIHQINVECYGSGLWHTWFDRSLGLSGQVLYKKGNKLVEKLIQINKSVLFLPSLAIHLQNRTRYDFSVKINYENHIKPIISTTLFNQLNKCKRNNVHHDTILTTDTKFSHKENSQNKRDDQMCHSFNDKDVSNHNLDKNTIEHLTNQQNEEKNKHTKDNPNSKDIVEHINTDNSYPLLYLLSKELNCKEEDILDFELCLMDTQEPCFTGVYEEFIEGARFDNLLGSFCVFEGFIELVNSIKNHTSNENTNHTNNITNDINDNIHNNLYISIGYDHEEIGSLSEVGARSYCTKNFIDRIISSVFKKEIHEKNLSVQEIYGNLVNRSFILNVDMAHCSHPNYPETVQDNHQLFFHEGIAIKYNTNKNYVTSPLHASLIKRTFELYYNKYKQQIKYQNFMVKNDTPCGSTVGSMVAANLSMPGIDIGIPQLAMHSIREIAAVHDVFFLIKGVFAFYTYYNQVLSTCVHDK
Procathepsin L, sequence (P07711 whole entry): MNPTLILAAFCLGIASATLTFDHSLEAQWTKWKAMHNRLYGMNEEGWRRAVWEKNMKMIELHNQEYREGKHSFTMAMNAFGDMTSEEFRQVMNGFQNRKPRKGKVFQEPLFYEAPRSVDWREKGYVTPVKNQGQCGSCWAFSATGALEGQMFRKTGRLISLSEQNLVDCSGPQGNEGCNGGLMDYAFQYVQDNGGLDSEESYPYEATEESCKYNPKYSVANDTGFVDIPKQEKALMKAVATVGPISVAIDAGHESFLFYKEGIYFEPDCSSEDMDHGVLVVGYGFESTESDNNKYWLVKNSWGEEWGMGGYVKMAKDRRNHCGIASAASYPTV

## O=C(NCc1cccnc1)c1cc(-c2ccc(Cl)cc2)oc1C(F)(F)F
[1]
  IC50: > 14.6 µM (not active)
[2]
  IC50: 11.9 µM (not active)

## Cc1ccc2nc(-c3ccncc3)cc(C(=O)Nc3ccc(OC(F)F)cc3)c2c1
[3]
  IC50: 4.12 µM (active)
[4]
  IC50: 5.69 µM (active)

## Cc1ccc(N(C)C(=O)C2CCCN2S(=O)(=O)c2ccc3c(c2)n(C)c(=O)c(=O)n3C)cc1 (stereo not given)
HeLa
  AC50: 267 µM (active)

## COCc1ccc(C(=O)OCC(=O)Nc2ccc([N+](=O)[O-])cc2OC)cc1
[5]
  IC50: > 100 µM (inactive)
[6]
  IC50: > 100 µM (inactive)

## Cc1cc(C)n2c(S)nnc2n1
Aspartyl aminopeptidase
  IC50: 6.41 µM (active)
Procathepsin L
  IC50: > 59.6 µM (not active)
[7]
  IC50: 43.2 µM (active)
[8]
  IC50: > 50 µM (not active)
[9]
  IC50: > 100 µM (inactive)
[10]
  IC50: 17 µM (active)

## CC(Cc1ccc(F)cc1)NC(=O)c1cccs1 (stereo not given)
Chaperone protein dnaK
  Kd: 28 µM (inactive)

## COc1cccc(-c2cc(C(F)(F)F)nc(NCc3ccco3)n2)c1
[11]
  EC50: > 50 µM (not active)

## COc1ccc(C2=NC(=O)/C(=C\c3cc(OC)c(OC)c(OC)c3)O2)cc1
Caspase-3
  EC50: 0.42 µM (active)
Caspase-7
  EC50: > 85.2 µM (inactive)
cells
  IC50: 1.18 µM (active)
[12]
  IC50: > 66 µM (inactive)
[13]
  IC50: > 66 µM (inactive)
